Measured values taken from patent US20230416248A1, “COMPOUNDS AND USES THEREOF” (Foghorn Therapeutics Inc., priority 2020, published 2023).

Target: T1, BRM (Homo sapiens, UniProt P51531)
T1 construct: made in house; host or cells: High Five insect cells
Assay: ATPase catalytic activity of BRM, ADP-Glo in vitro biochemical assay
Conditions: for IC50: 30 nM BRM, 400 μM ATP
Description: The ATPase catalytic activity of BRM or BRG-1 was measured by an in vitro biochemical assay using ADP-Glo™ (Promega, V9102). The ADP-Glo™ kinase assay is performed in two steps once the reaction is complete. The first step is to deplete any unconsumed ATP in the reaction. The second step is to convert the reaction product ADP to ATP, which will be utilized by the luciferase to generate luminesce and be detected by a luminescence reader, such as Envision.
The assay reaction mixture ([…]) contains 30 nM of BRM or BRG-1, 20 nM salmon sperm DNA (from Invitrogen, UfraPure™ Salmon Sperm DNA Solution, cat #15632011), and 400 μM of ATP in the ATPase assay buffer, which comprises of 20 mM Tris, pH 8, 20 mM MgCl2, 50 mM NaCl, 0.1% Tween-20, and 1 mM fresh DTT (Piercer™ DTT (Dithiothreitol), cat #20290). The reaction is initiated by the addition of the 2.5 μL ATPase solution to 2.5 μL ATP/DNA solution on low volume white Proxiplate-384 plus plate (PerkinElmer, cat #6008280) and incubates at room temperature for 1 hour. Then, following addition of 5 μL of ADP-Glo™ Reagent provided in the kit, the reaction incubates at room temperature for 40 minutes. Then, 10 μL of Kinase Detection Reagent provided in the kit is added to convert ADP to ATP, and the reaction incubates at room temperature for 60 minutes. Finally, luminescence measurement is collected with a plate-reading luminometer, such as Envision.

[1] = ATPase catalytic activity, ADP-Glo

T1 sequence (P51531 whole entry): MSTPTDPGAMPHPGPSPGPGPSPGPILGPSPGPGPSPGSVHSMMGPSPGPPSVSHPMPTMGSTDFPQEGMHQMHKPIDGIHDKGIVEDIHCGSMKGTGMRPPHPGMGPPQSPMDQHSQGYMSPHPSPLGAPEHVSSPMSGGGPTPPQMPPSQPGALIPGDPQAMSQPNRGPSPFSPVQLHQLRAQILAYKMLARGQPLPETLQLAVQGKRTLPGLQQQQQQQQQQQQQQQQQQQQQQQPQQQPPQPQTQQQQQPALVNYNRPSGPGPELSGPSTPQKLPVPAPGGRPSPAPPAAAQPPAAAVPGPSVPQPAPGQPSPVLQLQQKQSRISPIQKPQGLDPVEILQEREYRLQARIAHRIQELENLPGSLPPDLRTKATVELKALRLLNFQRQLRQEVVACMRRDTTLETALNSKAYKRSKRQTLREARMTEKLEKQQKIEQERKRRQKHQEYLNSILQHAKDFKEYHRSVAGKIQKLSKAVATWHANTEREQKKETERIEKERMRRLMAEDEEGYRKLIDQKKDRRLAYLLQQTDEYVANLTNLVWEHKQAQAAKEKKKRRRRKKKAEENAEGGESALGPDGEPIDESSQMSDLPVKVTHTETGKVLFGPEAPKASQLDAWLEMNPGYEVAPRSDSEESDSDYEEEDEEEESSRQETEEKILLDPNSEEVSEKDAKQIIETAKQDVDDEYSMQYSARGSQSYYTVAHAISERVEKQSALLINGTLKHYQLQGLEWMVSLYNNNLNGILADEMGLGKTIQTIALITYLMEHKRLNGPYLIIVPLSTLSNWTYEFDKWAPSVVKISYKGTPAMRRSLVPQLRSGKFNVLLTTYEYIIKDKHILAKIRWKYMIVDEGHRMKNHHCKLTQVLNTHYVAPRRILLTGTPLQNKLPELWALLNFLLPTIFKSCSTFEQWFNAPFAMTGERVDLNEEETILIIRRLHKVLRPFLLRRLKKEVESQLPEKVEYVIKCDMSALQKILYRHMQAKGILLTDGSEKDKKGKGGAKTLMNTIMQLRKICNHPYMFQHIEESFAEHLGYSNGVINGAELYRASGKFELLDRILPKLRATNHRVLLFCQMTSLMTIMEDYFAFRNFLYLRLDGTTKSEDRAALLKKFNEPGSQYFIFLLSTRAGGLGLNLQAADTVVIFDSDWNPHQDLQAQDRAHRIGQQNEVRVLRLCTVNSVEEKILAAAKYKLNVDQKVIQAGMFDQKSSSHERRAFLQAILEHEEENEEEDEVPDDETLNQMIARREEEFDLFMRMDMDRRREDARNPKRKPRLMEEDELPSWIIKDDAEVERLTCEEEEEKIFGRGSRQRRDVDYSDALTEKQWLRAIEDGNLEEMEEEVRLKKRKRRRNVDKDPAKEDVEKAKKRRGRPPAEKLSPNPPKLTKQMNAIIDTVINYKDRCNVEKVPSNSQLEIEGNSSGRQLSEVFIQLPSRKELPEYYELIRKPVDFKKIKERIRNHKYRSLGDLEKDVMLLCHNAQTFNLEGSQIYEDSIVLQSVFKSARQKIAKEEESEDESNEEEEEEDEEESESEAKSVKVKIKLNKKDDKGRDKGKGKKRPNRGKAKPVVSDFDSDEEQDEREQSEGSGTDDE

| Compound | IC50 (ADP-Glo ATPase assay) [nM] | Ratio* (ratio BRG1 IC50 / BRM IC50) | IC50 [1] [nM] | Ratio* (ratio of BRG1 IC50 to BRM IC50) |
| --- | --- | --- | --- | --- |
| COCCN(c1cc(C2CC2)ccn1)c1ccc2cnc(CNC(=O)c3ccc4c(c3)S(=O)(=O)CCOC4)cc2n1 [Compound 829] | 1660 | 3.02 |  |  |
| O=C(NCc1cc2nc(N3CCCc4ccc(C(F)F)nc43)ccc2cn1)c1ccc2c(c1)S(=O)(=O)CCOC2 [Compound 563] |  |  |  | 16.52 |
| COCCN(c1ccc(C2CC2)cn1)c1ccc2cnc(CNC(=O)c3ccc4c(c3)S(=O)(=O)CCOC4)cc2n1 [Compound 833] | 2320 | 2.15 |  |  |
| O=C(NCc1cc2nc(N3CCc4nccnc4C3)ccc2cn1)c1ccc2c(c1)S(=O)(=O)CCOC2 [Compound 546] |  |  | 1820 | 2.75 |
| O=C(NCc1cc2nc(N3C(=O)Cc4ccccc43)ccc2cn1)c1ccc2c(c1)S(=O)(=O)CCOC2 [Compound 356] |  |  | 3310 | 1.51 |
| C[C@@H]1CN(c2cccc(-c3ccc4cnc(CNC(=O)c5ccc6c(c5)S(=O)(=O)CCO[C@H]6C5CC5)cc4n3)n2)C[C@H](C)O1 [Compound 459] |  |  | 192 | 25.98 |
| O=C(NCc1cc2nc(C34CC3CCc3cccnc34)ccc2cn1)c1ccc2c(c1)S(=O)(=O)CCOC2 (stereo not shown) [Compound 762] |  | 1.00 |  |  |
| CO[C@@H](c1ccc2c(n1)N(c1ccc3cnc(CNC(=O)c4ccc5c(c4)S(=O)(=O)CCOC5)cc3n1)CCC2)C1CC1 [Compound 663] |  |  | 673 | 7.43 |
| O=C(NCc1cc2nc(-c3ccc(OC(F)F)cn3)ccc2cn1)c1ccc2c(c1)S(=O)(=O)CCOC2 [Compound 849] | 606 | 8.25 |  |  |
| O=C(NCc1cc2nc(-c3cccc4c3CN(CC(F)F)CC4)ccc2cn1)c1ccc2c(c1)S(=O)(=O)CCOC2 [Compound 675] |  |  | 884 | 5.66 |
| Cn1cccc(-c2ccc3cnc(CNC(=O)c4ccc5c(c4)S(=O)(=O)CCOC5)cc3n2)c1=O [Compound 826] | 3200 | 1.56 |  |  |
| C[C@@H]1CN(c2cccc(-c3ccc4cnc(CNC(=O)c5ccc6c(c5)S(=O)(=O)CC[C@H](C(F)F)O6)cc4n3)n2)C[C@H](C)O1 [Compound 582] |  |  | 1240 | 4.05 |
| C[C@@H]1CN(c2cccc(-c3ccc4cnc(CNC(=O)c5cc(Cl)c6c(c5)S(=O)(=O)CCO[C@H]6C)cc4n3)n2)C[C@H](C)O1 [Compound 547] |  |  | 293 | 17.08 |
| COc1ccc(C(C)(F)F)cc1-c1ccc2cnc(CNC(=O)c3ccc4c(c3)S(=O)(=O)CCOC4)cc2n1 [Compound 368] |  |  |  | 1.00 |
| CO[C@H](C)c1ccc2c(n1)N(c1ccc3cnc(CNC(=O)c4ccc5c(c4)S(=O)(=O)CCOC5)cc3n1)CCC2 [Compound 562] |  |  | 425 | 11.77 |
| CC[C@H]1CCS(=O)(=O)c2cc(C(=O)NCc3cc4nc(-c5cccc(N6C[C@@H](C)O[C@@H](C)C6)n5)ccc4cn3)ccc2O1 [Compound 584] |  |  | 793 | 6.31 |
| COCCN(c1ccnc(C2CC2)n1)c1ccc2cnc(CNC(=O)c3ccc4c(c3)S(=O)(=O)CCOC4)cc2n1 [Compound 839] |  | 1.00 |  |  |
| COC1Cc2cccnc2N(c2ccc3cnc(CNC(=O)c4ccc5c(c4)S(=O)(=O)CCOC5)cc3n2)C1 (stereo not shown) [Compound 633] |  |  | 2230 | 2.24 |
| COCCN1CCc2cccc(-c3ccc4cnc(CNC(=O)c5ccc6c(c5)S(=O)(=O)CCOC6)cc4n3)c2C1 [Compound 674] |  |  | 3780 | 1.32 |
| O=C(NCc1cc2nc(-c3cccc4c3CN(C3COC3)CC4)ccc2cn1)c1ccc2c(c1)S(=O)(=O)CCOC2 [Compound 671] |  |  | 4000 | 1.25 |
| C[C@@H]1CN(c2cccc(-c3ccc4cnc(CNC(=O)c5ccc6c(c5)S(=O)(=O)C5(CC6)CC5)cc4n3)n2)C[C@H](C)O1 [Compound 531] |  |  |  | 28.30 |
| CO[C@H](c1ccc2c(n1)N(c1ccc3cnc(CNC(=O)c4ccc5c(c4)S(=O)(=O)CCOC5)cc3n1)CCC2)C1CC1 [Compound 664] |  |  | 1750 | 2.86 |

Continued, values first:

| IC50 (ADP-Glo ATPase assay) [nM] | Ratio* (ratio BRG1 IC50 / BRM IC50) | IC50 [1] [nM] | Ratio* (ratio of BRG1 IC50 to BRM IC50) | Compound |
| --- | --- | --- | --- | --- |
|  |  | 1160 | 4.29 | C[C@@H]1CN(c2cccc(-c3ccc4cnc(CNC(=O)c5cc(Cl)c6c(c5)S(=O)(=O)[C@H](C)CCO6)cc4n3)n2)C[C@H](C)O1 [Compound 486] |
|  |  | 131 | 38.11 | Cc1cc(C(=O)NCc2cc3nc(-c4cccc(N5C[C@@H](C)O[C@@H](C)C5)n4)ccc3cn2)cc2c1O[C@H](C)CCS2(=O)=O [Compound 541] |
|  |  | 843 | 5.93 | CN1CC[C@@H](Oc2cccc(-c3ccc4cnc(CNC(=O)c5ccc6c(c5)S(=O)(=O)CCOC6)cc4n3)n2)C1 [Compound 328] |
| 4000 | 1.25 |  |  | COCCN(c1cccc(C2CC2)n1)c1ccc2cnc(CNC(=O)c3ccc4c(c3)S(=O)(=O)CCOC4)cc2n1 [Compound 840] |
|  |  | 484 | 10.33 | C[C@@H]1CN(c2cccc(-c3ccc4cnc(CNC(=O)c5ccc6c(c5)S(=O)(=O)[C@H](C)CO6)cc4n3)n2)C[C@H](C)O1 [Compound 684] |
|  |  | 1590 | 3.15 | Cc1cc(C(=O)NCc2cc3nc(-c4cccc(N5C[C@@H](C)O[C@@H](C)C5)n4)ccc3cn2)cc2c1OCC[C@@H](C)S2(=O)=O [Compound 461] |
|  |  | 4560 | 1.10 | C[C@@H]1CN(c2cccc(-c3ccc4cnc(CNC(=O)c5ccc6c(c5)S(=O)(=O)[C@H](C)CO[C@H]6C)cc4n3)n2)C[C@H](C)O1 [Compound 518] |
|  |  |  | 1.00 | C[C@@H]1COCc2ncc(C(=O)NCc3cc4nc(-c5cccc(C6CC6)n5)ccc4cn3)cc2S1(=O)=O [Compound 455] |
|  |  | 3930 | 1.27 | C[C@@H]1CN(c2cccc(-c3ccc4cnc(CNC(=O)c5ccc6c(c5)S(=O)(=O)CCC(C)(C)O6)cc4n3)n2)C[C@H](C)O1 [Compound 559] |
|  |  | 498 | 10.04 | C[C@@H]1CN(c2cccc(-c3ccc4cnc(CNC(=O)c5ccc6c(c5)S(=O)(=O)[C@H](C)CN6C)cc4n3)n2)C[C@H](C)O1 [Compound 560] |
|  |  | 253 | 19.79 | CCOc1cc(C)cc(-c2ccc3cnc(CNC(=O)c4ccc5c(c4)S(=O)(=O)[C@@H](C)COC5)cc3n2)n1 [Compound 417] |
|  |  | 429 | 11.66 | C[C@@H]1CN(c2cccc(-c3ccc4cnc(CNC(=O)c5ccc6c(c5)S(=O)(=O)[C@@H](C)CO[C@@H]6C)cc4n3)n2)C[C@H](C)O1 [Compound 517] |
|  |  |  | 4.40 | CC1CN(c2cccc(-c3ccc4cnc(CNC(=O)c5cnc6c(c5)S(=O)(=O)CCC5CC65)cc4n3)n2)CC(C)O1 (stereo not shown) [Compound 579] |
|  |  | 206 | 24.25 | C[C@@H]1CN(c2cccc(-c3ccc4cnc(CNC(=O)c5ccc6c(c5)S(=O)(=O)[C@@H](C)CC6)cc4n3)n2)C[C@H](C)O1 [Compound 363] |
|  |  | 1500 | 3.34 | C[C@@H]1CN(c2cccc(-c3ccc4cnc(CNC(=O)c5cc(Cl)c6c(c5)S(=O)(=O)[C@H](C)COC6)cc4n3)n2)C[C@H](C)O1 [Compound 432] |
|  |  | 681 | 7.34 | C[C@@H]1CN(c2cccc(-c3ccc4cnc(CNC(=O)c5cnc6c(c5)S(=O)(=O)[C@H](C)CC6)cc4n3)n2)C[C@H](C)O1 [Compound 596] |
|  |  |  | 3.78 | CC1CN(c2cccc(-c3ccc4cnc(CNC(=O)c5cnc6c(c5)S(=O)(=O)CCC5CC65)cc4n3)n2)CC(C)O1 (stereo not shown) [Compound 577] |
